Measured values: US20210317092A1 (BAYER PHARMA AKTIENGESELLSCHAFT, priority 2016, published 2021)
Read-outs that look alike come from different tables or passages of the source.

Columns and labels:
[1] = molecular target: T1, native human Bradykinin B1 receptor (Homo sapiens, UniProt P46663); assay: Calcium flux Assay (FLIPR) with human fibroblasts expressing Bradykinin B1 receptor (hB1 IMR-90); format: cell-based; settings: IMR-90 human fibroblasts expressing native Bradykinin B1 receptor
T1 construct: which express native human Bradykinin B1 receptor after induction with human IL-10; Coriell Institute; host or cells: IMR-90 human foetal lung fibroblasts, cytokine-induced
T1 sequence (P46663 1-353): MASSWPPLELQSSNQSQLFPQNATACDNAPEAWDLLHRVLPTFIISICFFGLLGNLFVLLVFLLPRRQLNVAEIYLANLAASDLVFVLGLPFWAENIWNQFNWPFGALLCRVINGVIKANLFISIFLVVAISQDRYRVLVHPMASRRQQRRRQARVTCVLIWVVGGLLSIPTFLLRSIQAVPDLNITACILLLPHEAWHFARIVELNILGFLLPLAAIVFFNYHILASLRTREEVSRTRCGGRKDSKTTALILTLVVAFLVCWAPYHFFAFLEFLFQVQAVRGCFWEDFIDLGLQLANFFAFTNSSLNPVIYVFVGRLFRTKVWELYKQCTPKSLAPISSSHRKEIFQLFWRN
Method: Calcium flux Assay (FLIPR) with human fibroblasts expressing Bradykinin B1 receptor (hB1 IMR-90)
The Calcium flux Assay was carried out utilising IMR-90 human foetal lung fibroblasts (American Type Culture Collection, Rockville, Md.; and Coriell Institute, Camden, N.J.), which express native human Bradykinin B1 receptor after induction with human […].
The fibroblasts were cultured in complete growth media comprised of Dulbecco's modified Eagle's medium (DMEM; Sigma) containing 10% foetal bovine serum, 4 mM L-glutamine, and 1% nonessential amino acids. The cells were maintained in a humidified atmosphere with 5% CO2 at 37° C. and were sub-cultured at a ratio of 1:3, every other day.
For the assay, IMR-90 fibroblasts were harvested using TrypLE Express (GIBCO/Invitrogen) and seeded into 384-well plates (Corning Cellbinding Surface, Cat. 3683) at a density of 15000 cells/well. The following day, cells were treated with 0.35 ng/mL human […] in 10% FBS/MEM for 3h to up-regulate Bradykinin B1 receptor. Induced cells were loaded with fluorescent calcium indicator by incubation with 2.5 μM Fluo-4/AM (Invitrogen) at 37° C., 5% CO2 for 2 h in the presence of 2.5 mM probenecid in 1% FBS/MEM. Extracellular dye was removed by washing with assay buffer (2.5 mM probenecid and 0.1% BSA in 20 mM HEPES/HBSS without bicarbonate or phenol red, pH 7.5). Compound examples were assayed at 8 concentrations in triplicate. After addition of compound examples to the cell plate and incubation for 30 min at 28° C., the addition of Bradykinin B1 agonist Lys-(Des-Arg)-Bradykinin (Bachem, Brackley) at a final concentration of EC90 was carried out on the FLIPR instrument while continuously monitoring Ca^2+-dependent fluorescence at 538 nm. A peptide antagonist Lys-(Des-Arg-Leu)-Bradykinin (Bachem, Brackley) at 20 µM was used to determine the full inhibition as control. IC50 values were determined by the same way described for the FLIPR assay with recombinant cells.

[2] = molecular target: T2, human Bradykinin B1 receptor (Homo sapiens, UniProt P46663); assay: Calcium flux Assay (FLIPR) with recombinant CHO-K1 cells expressing human Bradykinin B1 receptor, in presence (hB1 IC50) or absence (hB1 free IC50) of 0.1% BSA; format: cell-based
T2 construct: host or cells: CHO-K1
T2 sequence (P46663 1-353): T1 sequence (P46663 1-353)

[3] = in presence of 0.1% BSA, read-out: hB1 IC50
[4] = in absence of 0.1% BSA, read-out: hB1 free IC50

Structure (SMILES) | IC50 [1] [µM] | IC50 [2, 3] [µM] | IC50 [2, 4] [µM]
CCOc1ccc(-c2cc(O)c(NC(=O)C3(c4ccc(Cl)cc4)CC3)cc2-c2nnn[nH]2)cn1 [Example 227, 1-(4-chlorophenyl)-N-[4-(6-ethoxypyridin-3-yl)-2-hydroxy-5-(1H-tetrazol-5-yl)phenyl] cyclopropane-carboxamide] | 0.177 | 0.0838 | –
CCOc1ccc(-c2ccc(NC(=O)C3(c4ccc(C(F)(F)F)cc4)CC3)cc2-c2nnn[nH]2)cn1 [Example 105, N-[4-(6-ethoxypyridin-3-yl)-3-(1H-tetrazol-5-yl)phenyl]-1-[4-(trifluoromethyl)phenyl] cyclopropane-carboxamide] | 0.0107 | 0.0109 | 0.00454
CCOc1ccc(-c2ccc(NC(=O)C3(c4cc(Cl)ccc4F)CC3)cc2-c2nnn[nH]2)cn1 [Example 78, 1-(5-chloro-2-fluorophenyl)-N-[4-(6-ethoxypyridin-3-yl)-3-(1H-tetrazol-5-yl)phenyl] cyclopropane-carboxamide] | 0.0158 | 0.0245 | 0.0212
Cc1cc(-c2ccc(NC(=O)C3(c4ccc(C(F)(F)F)cc4F)CC3)cc2-c2nnn[nH]2)ccn1 [Example 212, 1-[2-fluoro-4-(trifluoromethyl)phenyl]-N-[4-(2-methylpyridin-4-yl)-3-(1H-tetrazol-5-yl)phenyl] cyclopropane carboxamide] | 0.00392 | – | 0.00277
O=C(Nc1ccc(-c2ccc(C(F)(F)F)nc2)c(-c2nnn[nH]2)c1)C1(c2ccc(F)c(F)c2)CC1 [Example 193, 1-(3,4-difluorophenyl)-N-{3-(1H-tetrazol-5-yl)-4-[6-(trifluoromethyl)pyridin-3-yl]phenyl} cyclopropane-carboxamide] | 0.0806 | – | 0.0953
O=C(Nc1ccc(-c2ccc(C(F)(F)F)nc2)c(-c2nnn[nH]2)c1)C1(c2ccc(OC(F)(F)F)cc2)CC1 [Example 136, N-{3-(1H-tetrazol-5-yl)-4-[6-(trifluoromethyl)pyridin-3-yl]phenyl}-1-[4-(trifluoromethoxy)phenyl] cyclopropane-carboxamide] | 0.0157 | – | 0.165
COCc1ccc(-c2ccc(NC(=O)C3(c4cccc(Cl)c4)CC3)cc2-c2nnn[nH]2)cn1 [Example 125, 1-(3-chlorophenyl)-N-{4-[6-(methoxymethyl)pyridin-3-yl]-3-(1H-tetrazol-5-yl)phenyl} cyclopropane-carboxamide] | 0.026 | 0.0138 | 0.0233
CO[C@H]1CC[C@H](c2ccc(NC(=O)C3(c4cccc(Cl)c4)CC3)cc2-c2nnn[nH]2)CC1 [Example 190, 1-(3-chlorophenyl)-N-[4-(trans-4-methoxy-cyclohexyl)-3-(1H-tetrazol-5-yl)phenyl] cyclopropane-carboxamide] | 0.34 | 0.25 | 0.189
CCOc1ncc(-c2ccc(NC(=O)C3(c4cccc(Cl)c4F)CC3)cc2-c2nnn[nH]2)cn1 [Example 183, 1-(3-chloro-2-fluorophenyl)-N-[4-(2-ethoxypyrimidin-5-yl)-3-(1H-tetrazol-5-yl)phenyl] cyclopropane-carboxamide] | 0.0111 | 0.033 | 0.0544
CCOc1ccc(-c2ccc(NC(=O)C3(C(F)(F)F)CC3)cc2-c2nnn[nH]2)cn1 [Example 91, N-[4-(6-ethoxypyridin-3-yl)-3-(1H-tetrazol-5-yl)phenyl]-1-(trifluoromethyl) cyclopropane-carboxamide] | 0.161 | 0.174 | 0.452
CCOc1ccc(-c2ccc(NC(=O)C3(c4cccc(C(F)(F)F)c4)CC3)cc2-c2nnn[nH]2)cc1OC [Example 120, N-[4′-ethoxy-3′-methoxy-2-(1H-tetrazol-5-yl)biphenyl-4-yl]-1-[3-(trifluoromethyl)phenyl] cyclopropane-carboxamide] | 0.0251 | 0.0306 | –
CCCOc1ccc(-c2ccc(NC(=O)C3(c4ccc(F)cc4F)CC3)cc2-c2nnn[nH]2)cn1 [Example 112, 1-(2,4-difluorophenyl)-N-[4-(6-propoxypyridin-3-yl)-3-(1H-tetrazol-5-yl)phenyl] cyclopropane-carboxamide] | 0.0204 | 0.0449 | 0.0162
O=C(Nc1cc(F)c(-c2ccc(C(F)(F)F)nc2)c(-c2nnn[nH]2)c1)C1(c2cccc(Cl)c2)CC1 [Example 241, 1-(3-chlorophenyl)-N-{3-fluoro-5-(1H-tetrazol-5-yl)-4-[6-(trifluoromethyl)pyridin-3-yl]phenyl} cyclopropane-carboxamide] | 0.127 | – | 0.0542
O=C(Nc1ccc(-c2ccnc(C(F)(F)F)c2)c(-c2nnn[nH]2)c1)C1(c2ccc(OC(F)(F)F)cc2F)CC1 [Example 295, 1-[2-fluoro-4-(trifluoromethoxy)phenyl]-N-{3-(1H-tetrazol-5-yl)-4-[2-(trifluoromethyl)pyridin-4-yl]phenyl}cyclopro-panecarboxa-mide] | 0.0338 | – | 0.0241
CCOc1ccc(-c2c(Cl)cc(NC(=O)C3(c4cccc(Cl)c4F)CC3)cc2-c2nnn[nH]2)cn1 [Example 248, N-[3-chloro-4-(6-ethoxypyridin-3-yl)-5-(1H-tetrazol-5-yl)phenyl]-1-(3-chloro-2-fluoropheny) cyclopropane-carboxamide] | 0.0252 | – | 0.0144
O=C(Nc1ccc(-c2ccnc(C(F)(F)F)c2)c(-c2nnn[nH]2)c1)C1(c2ccc(C(F)(F)F)cc2F)CC1 [Example 173, 1-[2-fluoro-4-(trifluoromethyl)phenyl]-N-{3-(1H-tetrazol-5-yl)-4-[2-(trifluoromethyl)pyridin-4-yl]phenyl} cyclopropane-carboxamide] | 0.0924 | – | 0.0865
CCn1cc(-c2ccc(NC(=O)C3(c4cccc(Cl)c4)CC3)cc2-c2nnn[nH]2)cn1 [Example 216, 1-(3-chlorophenyl)-N-[4-(1-ethyl-1H-pyrazol-4-yl)-3-(1H-tetrazol-5-yl)phenyl] cyclopropane-carboxamide] | 0.0388 | – | 0.0406
CC(C)Oc1ccc(-c2ccc(NC(=O)C3(c4ccc(C(F)(F)F)cc4)CC3)cc2-c2nnn[nH]2)cn1 [Example 149, N-[4-(6-isopropoxy-pyridin-3-yl)-3-(1H-tetrazol-5-yl)phenyl]-1-[4-(trifluoromethyl)phenyl] cyclopropane-carboxamide] | 0.0118 | 0.0144 | 0.00635
Cn1ncc2ccc(-c3ccc(NC(=O)C4(c5cccc(Cl)c5)CC4)cc3-c3nnn[nH]3)cc21 [Example 213, 1-(3-chlorophenyl)-N-[4-(1-methyl-1H-indazol-6-yl)-3-(1H-tetrazol-5-yl)phenyl] cyclopropane-carboxamide] | 0.0247 | 0.0632 | 0.018
CCOc1ccc(-c2ccc(NC(=O)C3(c4cccc(C(C)(C)C)c4)CC3)cc2-c2nnn[nH]2)cn1 [Example 97, 1-(3-tert-butylphenyl)-N-[4-(6-ethoxypyridin-3-yl)-3-(1H-tetrazol-5-yl)phenyl] cyclopropane-carboxamide] | 0.101 | 0.138 | –
COc1ccc(-c2ccc(NC(=O)C3(c4ccc(F)c(C)c4)CC3)cc2-c2nnn[nH]2)cc1OC [Example 48, N-[3′,4′-dimethoxy-2-(1H-tetrazol-5-yl)biphenyl-4-yl]-1-(4-fluoro-3-methylphenyl) cyclopropane-carboxamide] | 0.0293 | 0.0505 | –
O=C(Nc1ccc(-c2cnc(C(F)(F)F)nc2)c(-c2nnn[nH]2)c1)C1(c2ccc(C(F)(F)F)cc2F)CC1 [Example 261, 1-[2-fluoro-4-(trifluoromethyl)phenyl]-N-{3-(1H-tetrazol-5-yl)-4-[2-(trifluoromethyl)pyrimidin-5-yl]phenyl}cyclopro-panecarboxa-mide] | 0.204 | – | 0.212
CCOc1ccc(-c2ccc(NC(=O)C3(c4ccc(F)cc4)CC3)cc2-c2nnn[nH]2)cn1 [Example 81, N-[4-(6-ethoxypyridin-3-yl)-3-(1H-tetrazol-5-yl)phenyl]-1-(4-fluorophenyl) cyclopropane-carboxamide] | 0.0212 | 0.0275 | 0.0291
